Experimental data published in ChEMBL document CHEMBL1201862, “PubChem BioAssay data set” (2004).
Calls of active or inactive are those of the source.

Assays:
[1] = test system: Vero; test: cells; format: functional; conditions: Chlorocebus sabaeus
[2] = target: T1, Calpain-2 catalytic subunit (Sus scrofa, UniProt P43367); test: m-calpain protease blockers, concentration series – biochemical, fluorogenic peptide substrate, dose response (AID 1420); format: functional
T1 sequence (P43367 whole entry): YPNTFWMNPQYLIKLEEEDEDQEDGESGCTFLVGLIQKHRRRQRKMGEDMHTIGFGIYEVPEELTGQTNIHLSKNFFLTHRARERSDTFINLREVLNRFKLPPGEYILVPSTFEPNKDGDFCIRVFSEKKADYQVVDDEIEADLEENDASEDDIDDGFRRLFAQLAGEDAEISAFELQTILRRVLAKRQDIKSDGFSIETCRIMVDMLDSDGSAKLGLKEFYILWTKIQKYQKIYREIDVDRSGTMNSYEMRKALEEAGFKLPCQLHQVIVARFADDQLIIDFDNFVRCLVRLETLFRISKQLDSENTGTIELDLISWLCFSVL

[3] = target: T2, Polyadenylate-binding protein 1 (Homo sapiens, UniProt P11940); test: MLLE binding blockers, Cy5 peptide tracer – biochemical, fluorescence polarization, Cy5-PAM2 peptide, secondary, miRNA deadenylation inhibitor project, dose response (AID 602260); format: functional; conditions: read-out: IC50_Mean
T2 sequence (P11940 whole entry, the tested form may be a part): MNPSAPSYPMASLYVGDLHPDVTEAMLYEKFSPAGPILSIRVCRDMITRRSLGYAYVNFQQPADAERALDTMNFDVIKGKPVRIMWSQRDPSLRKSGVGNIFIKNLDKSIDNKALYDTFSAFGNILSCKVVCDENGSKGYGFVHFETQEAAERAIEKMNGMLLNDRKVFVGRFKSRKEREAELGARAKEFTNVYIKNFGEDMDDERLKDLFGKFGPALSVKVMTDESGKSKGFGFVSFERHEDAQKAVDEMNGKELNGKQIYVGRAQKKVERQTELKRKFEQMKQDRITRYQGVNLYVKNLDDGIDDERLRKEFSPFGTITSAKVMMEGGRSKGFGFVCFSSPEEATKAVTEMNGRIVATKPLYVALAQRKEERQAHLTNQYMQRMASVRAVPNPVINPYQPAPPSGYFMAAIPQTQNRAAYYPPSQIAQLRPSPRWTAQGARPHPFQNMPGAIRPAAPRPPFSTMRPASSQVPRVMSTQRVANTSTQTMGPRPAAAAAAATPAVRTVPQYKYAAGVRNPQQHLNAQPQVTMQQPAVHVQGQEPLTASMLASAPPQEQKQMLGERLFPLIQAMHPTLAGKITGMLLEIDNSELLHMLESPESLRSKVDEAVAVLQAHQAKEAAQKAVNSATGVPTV

[4] = target: T2, Polyadenylate-binding protein 1; test: MLLE domain peptide-binding blockers, IC50 – biochemical, fluorescence polarization, FITC-PAM2 peptide, dose response (AID 602259); format: functional; conditions: read-out: IC50_Mean
[5] = test system: BJ; test: BJ-TERT fibroblast viability loss – cell-based, RAS-independent, luminescence, dose response (AID 1933); format: functional; conditions: Homo sapiens
[6] = test system: BJ; test: cells; format: functional, cell-based; conditions: Homo sapiens
[7] = test system: BJ; test: BJ-TERT-LT-ST fibroblast viability loss – cell-based, RAS-independent, luminescence, dose response (AID 1935); format: functional; conditions: Homo sapiens;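 also: BJ fibroblasts immortalized with TERT plus LT and ST oncogenes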
[8] = DRD fibroblast viability loss – cell-based, non-viral oncogenic, luminescence, dose response (AID 1934); format: functional; conditions: Homo sapiens
[9] = target: T3, Replicative DNA helicase DnaB (Mycobacterium tuberculosis, UniProt P9WMR3); test: DnaB intein splicing inhibitors, dose response, biochemical, cell-free fluorescence (AID 449749); format: functional
T3 sequence (P9WMR3 whole entry): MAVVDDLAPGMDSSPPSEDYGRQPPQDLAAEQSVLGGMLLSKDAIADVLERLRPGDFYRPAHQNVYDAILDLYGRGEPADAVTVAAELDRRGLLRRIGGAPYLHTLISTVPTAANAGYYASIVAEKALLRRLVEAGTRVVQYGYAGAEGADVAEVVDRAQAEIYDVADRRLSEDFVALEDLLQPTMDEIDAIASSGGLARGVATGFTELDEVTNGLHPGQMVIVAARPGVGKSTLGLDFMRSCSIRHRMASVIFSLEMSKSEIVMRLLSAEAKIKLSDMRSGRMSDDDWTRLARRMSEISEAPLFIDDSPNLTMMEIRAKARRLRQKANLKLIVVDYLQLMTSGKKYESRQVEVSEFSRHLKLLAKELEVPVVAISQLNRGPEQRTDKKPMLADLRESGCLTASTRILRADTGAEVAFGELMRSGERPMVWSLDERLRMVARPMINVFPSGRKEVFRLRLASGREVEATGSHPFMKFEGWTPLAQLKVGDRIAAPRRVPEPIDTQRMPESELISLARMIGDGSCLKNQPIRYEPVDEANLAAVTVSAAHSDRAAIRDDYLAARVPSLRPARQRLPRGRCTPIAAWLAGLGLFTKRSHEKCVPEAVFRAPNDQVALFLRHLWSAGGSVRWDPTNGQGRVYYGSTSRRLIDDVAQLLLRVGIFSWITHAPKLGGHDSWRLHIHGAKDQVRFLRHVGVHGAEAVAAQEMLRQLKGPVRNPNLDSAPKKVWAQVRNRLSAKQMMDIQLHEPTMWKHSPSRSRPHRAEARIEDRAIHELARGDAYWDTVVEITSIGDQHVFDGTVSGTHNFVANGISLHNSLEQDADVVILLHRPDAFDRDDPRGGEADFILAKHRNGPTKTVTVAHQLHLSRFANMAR

[10] = target: T4, Protein RecA (Mycobacterium tuberculosis, UniProt P9WHJ3); test: Fluorescence Cell-Free Homogeneous Dose Retest to Identify Inhibitors of RecA-Intein Splicing Activity. [Related pubchem assays (depositor defined):AID2097, AID2223, AID489010, AID492950]; format: functional
T4 sequence (P9WHJ3 whole entry): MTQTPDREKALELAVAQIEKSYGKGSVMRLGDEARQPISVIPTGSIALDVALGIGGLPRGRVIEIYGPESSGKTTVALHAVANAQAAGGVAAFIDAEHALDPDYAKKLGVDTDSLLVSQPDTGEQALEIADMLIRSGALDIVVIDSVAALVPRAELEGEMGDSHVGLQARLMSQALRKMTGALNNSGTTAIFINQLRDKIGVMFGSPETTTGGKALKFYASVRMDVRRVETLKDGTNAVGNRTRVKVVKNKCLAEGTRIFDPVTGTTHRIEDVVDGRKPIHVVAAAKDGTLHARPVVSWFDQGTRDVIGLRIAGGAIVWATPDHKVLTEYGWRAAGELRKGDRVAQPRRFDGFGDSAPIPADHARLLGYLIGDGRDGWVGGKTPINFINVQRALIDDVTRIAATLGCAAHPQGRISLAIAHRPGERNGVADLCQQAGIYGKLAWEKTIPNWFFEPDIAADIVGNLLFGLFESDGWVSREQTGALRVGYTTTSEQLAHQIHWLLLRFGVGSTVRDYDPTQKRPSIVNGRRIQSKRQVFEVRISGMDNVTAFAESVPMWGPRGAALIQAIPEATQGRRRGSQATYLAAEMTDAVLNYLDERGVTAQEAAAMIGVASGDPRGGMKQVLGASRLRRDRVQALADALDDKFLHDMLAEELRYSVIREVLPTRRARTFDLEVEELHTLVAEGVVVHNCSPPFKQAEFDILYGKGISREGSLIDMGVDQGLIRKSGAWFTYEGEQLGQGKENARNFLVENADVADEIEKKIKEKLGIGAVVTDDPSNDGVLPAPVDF

[11] = Trypanosoma cruzi growth suppression in host cells – NIH3T3 host cells, beta-gal luminescence, confirmation (AID 2044); format: functional, cell-based;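 also: intracellular parasites grown in NIH/3T3 mouse fibroblasts as host cells; luminescent beta-galactosidase reporter signal from transgenic T. cruzi replicating inside host cells; inhibitors lower the luminescence signal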
[12] = NIH3T3 cell viability loss – ATP luminescence, mouse fibroblasts, counter-screen, dose response (AID 2010); format: functional, cell-based;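 also: cells exposed to compound for about 90 hours before reading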
[13] = test system: Streptococcus sp. 'group A'; test: Streptococcus pyogenes SK(-)GAS viability under kanamycin – luminescence, BacTiterGlo, confirmation, counter-screen for streptokinase expression inhibitor project, dose response (AID 1900); format: functional, organism-based
[14] = viability of PTEN-deleted HCT116 cells – cell-based, HCT116 PTEN knockout, dose response (AID 1047); format: functional;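 also: HCT116 colon tumor cells with PTEN knocked out; cells exposed to compound for 60 hours before readout; potency for loss of cell viability measured by luminescence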
[15] = viability of HCT116 lacking mutant beta-catenin – cell-based, human colon tumor, dose response (AID 1045); format: functional;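 also: HCT116 colon tumor cells with beta catenin knocked out; cells exposed to compound for 60 hours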
[16] = test system: Streptococcus; test: GAS UMAA2166 growth inhibition – luminescence, BacTiterGlo, counter-screen for streptokinase expression inhibitor project, dose response (AID 1915); format: functional, organism-based;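 also: potency for reduction of bacterial viability or growth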
[17] = Luminescence Cell-Based Dose Confirmation HTS to Identify Activators of 5'UTR Stem-Loop Driven Alpha-Synuclein mRNA Translation in H4 Neuroglioblastoma Cells. [Related pubchem assays: 1829 (Project Summary), 1814 (Primary HTS)]; format: functional
[18] = Luminescence Cell-Based Dose Response HTS to Identify Activators of Luciferase Translation or Activity in H4 […] Cells. [Related pubchem assays: 1829 (Project Summary), 1814 (Primary HTS)]; format: functional
[19] = test system: H4; test: Luminescence Cell-Based Dose Response HTS to Identify Activators of 5'UTR Stem-Loop Driven Prion Protein mRNA Translation in H4 Neuroglioblastoma Cells. [Related pubchem assays: 1829 (Project Summary), 1814 (Primary HTS)]; format: functional; conditions: Homo sapiens
[20] = target: FAD-linked sulfhydryl oxidase ALR (Homo sapiens, UniProt P55789); test: ALR-catalysed DTT oxidation blockers – biochemical, H2O2 detection, luminescence, cherry-pick, dose response (AID 493248)
Sequence of FAD-linked sulfhydryl oxidase ALR (P55789 whole entry): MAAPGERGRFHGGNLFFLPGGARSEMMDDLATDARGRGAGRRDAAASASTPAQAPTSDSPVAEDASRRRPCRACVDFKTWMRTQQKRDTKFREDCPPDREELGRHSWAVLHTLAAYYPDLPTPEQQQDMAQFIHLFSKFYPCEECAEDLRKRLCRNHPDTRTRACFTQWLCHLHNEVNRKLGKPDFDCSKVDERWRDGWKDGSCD

Compound: COc1cccc(/C=C2\SC(=S)N(CCC(=O)N3CCCCC3CCO)C2=O)c1 (stereo unspecified)
- CC50 [1]: 15.9 µM (active)

Compound: CSc1ncccc1C(=O)OCC(=O)Nc1ccc2c(c1)OCO2
- IC50 [2]: < 0.4 µM (not active)

Compound: COc1cc(C(=O)NC2=NCCS2)ccc1OCc1c(C)noc1C
- IC50 [3]: > 66 µM (inactive)
- IC50 [4]: > 66 µM (inactive)

Compound: O=Cc1[nH]c2ccccc2c1N(C(=O)CCl)c1ccc([N+](=O)[O-])cc1
- EC50 [5]: 5.65 µM (inconclusive)
- EC50 [6]: 7.89 µM (active)
- EC50 [7]: 4.03 µM (active)
- EC50 [8]: 5.75 µM (inconclusive)

Compound: CCn1c(COc2ccc(Cl)cc2)nnc1SC1CCc2ccccc2C1=O (stereo unspecified)
- IC50 [2]: 7.24 µM (not active)
- AC50 [9]: 9.31 µM (active)
- EC50 [10]: 25.4 µM (active)

Compound: COc1ccc(CNC(=O)CN(Cc2ccc(C)cc2)C(=O)c2csnn2)cc1
- IC50 [3]: > 66 µM (inactive)
- IC50 [4]: > 66 µM (inactive)

Compound: O=C(Nc1ccccc1N1CCCCC1)c1ccc(-c2ccc(Cl)cc2)o1
- EC50 [5]: 3.11 µM (inconclusive)
- EC50 [6]: 40.9 µM (inconclusive)
- EC50 [7]: 46.9 µM (inconclusive)
- EC50 [8]: 2.91 µM (active)

Compound: O=C(Nc1ccc(Oc2ccccc2)nc1)C1CCCCN1Cc1ccco1 (stereo unspecified)
- EC50 [5]: 8.7 µM (inconclusive)
- EC50 [6]: 35.3 µM (active)
- EC50 [7]: 5.04 µM (inconclusive)
- EC50 [8]: 17.3 µM (inconclusive)

Compound: O=C(CSC1=Nc2ccccc2C2=NC(CC(=O)NCc3ccco3)C(=O)N12)NCc1ccco1 (stereo unspecified)
- IC50 [3]: > 66 µM (inactive)
- IC50 [4]: > 66 µM (inactive)

Compound: CC(C)(C)c1ccc(C(=O)NC(=S)Nc2ccc(N3CCOCC3)cc2)cc1
- EC50 [5]: 18.2 µM (active)
- EC50 [6]: 148 µM (inconclusive)
- EC50 [7]: > 150 µM (not active)
- EC50 [8]: > 150 µM (not active)

Compound: O=C(O)C1CSC(c2ccncc2)N1 (stereo unspecified)
- IC50 [3]: > 66 µM (inactive)
- IC50 [4]: > 66 µM (inactive)

Compound: O=C(CCl)N(CCc1ccccc1)CCc1ccccc1
- EC50 [11]: 2.07 µM (active)
- EC50 [12]: > 30 µM (not active)
- AC50 [9]: 10 µM (active)
- EC50 [10]: 2.36 µM (active)
- CC50 [1]: 8.89 µM (active)

Compound: CCOc1ccccc1CNC(=O)c1cn(C)c(=O)c2c1c1ccccc1n2C
- CC50 [1]: > 25 µM (active)

Compound: Cc1cccn2c(=O)c3cc(C(=O)NCc4ccco4)c(=N)n(CCOCCO)c3nc12
- IC50 [3]: > 66 µM (inactive)
- IC50 [4]: 15.2 µM (active)

Compound: CCC(CC)c1nnc(NC(=O)CC(C)c2ccccc2)s1 (stereo unspecified)
- EC50 [5]: > 150 µM (not active)
- EC50 [6]: > 150 µM (not active)
- EC50 [7]: > 75 µM (inconclusive)
- EC50 [8]: > 150 µM (not active)

Compound: CC1=Nc2cc(C(=O)NCCCOC(C)C)ccc2Sc2ccccc21
- EC50 [5]: 15.4 µM (active)
- EC50 [6]: 57.5 µM (active)
- EC50 [7]: > 150 µM (inconclusive)
- EC50 [8]: 18.6 µM (active)

Compound: CC1(C)Cc2c(c(-c3ccco3)[nH]c(=O)c2C#N)CS1
- IC50 [3]: > 66 µM (inactive)
- IC50 [4]: 26 µM (inactive)

Compound: Cc1ccccc1SCC(=O)NC1CCOC1=O (stereo unspecified)
- IC50 [3]: > 66 µM (inactive)
- IC50 [4]: > 66 µM (inactive)

Compound: Cc1cccc(-c2nnc(NC(=O)c3ccc(Cl)cc3)o2)c1
- EC50 [13]: 0.099 µM (active)
- EC50 [14]: 23.1 µM (active)
- EC50 [15]: 17.4 µM (active)
- EC50 [16]: 0.81 µM (active)
- CC50 [1]: > 25 µM (active)

Compound: Cc1ccc2ncccc2c1NC(=S)NC(=O)c1ccccc1
- IC50 [3]: > 66 µM (inactive)
- IC50 [4]: > 66 µM (inactive)

Compound: C=COC(=O)NC1CCc2cc(OC)c(OC)c(OC)c2-c2ccc(SC)c(=O)cc21 (stereo unspecified)
- CC50 [1]: < 0.05 µM (active)

Compound: Cn1c(CCC(=O)O)nc2cc(S(=O)(=O)N3CCCCC3)ccc21
- IC50 [3]: > 66 µM (inactive)
- IC50 [4]: > 66 µM (inactive)

Compound: Cc1ccc(S(=O)(=O)N2C[C@H]3n4c(=O)ccc(=O)n4C[C@H](OC(=O)NCC4CCCCC4)[C@@]3(O)C2)cc1
- CC50 [1]: > 25 µM (active)

Compound: CN(C)c1n/c(=N/c2cccc(Cl)c2)ss1
- CC50 [1]: 21.6 µM (active)

Compound: CCCCCC(=O)Nc1ccc(N2CCN(CC)CC2)c(Cl)c1
- EC50 [17]: 15.5 µM (active)
- EC50 [18]: 5.11 µM (active)
- EC50 [19]: 5.08 µM (active)
- IC50 [2]: 18.8 µM (not active)

Compound: O=C1Cc2c(-c3ccccc3)cc(-c3cccc(Cl)c3)nc2-c2ccccc2N1
- CC50 [1]: 11.4 µM (active)

Compound: Cc1ccc(NCC(=O)N/N=C/c2c[nH]c3ccccc23)cc1
- IC50 [2]: 16.1 µM (not active)

Compound: CC(=O)Nc1ccc(C2=NN(C)/C(=N/Cc3ccccc3)SC2)cc1
- IC50 [2]: 8.93 µM (not active)
- AC50 [20]: 3.9 µM (active)

Compound: CCCCCOc1ccc(/C(C)=N/NC2=NCCN2)cc1
- CC50 [1]: > 25 µM (active)

Compound: CC(=O)O[C@H]1C[C@]2(O)[C@@H]3CC[C@@H]4C[C@@H](O)CC[C@]4(C)[C@H]3CC[C@]2(C)[C@H]1C1=CC(=O)OC1
- CC50 [1]: 0.46 µM (active)

Compound: Cc1nc(NC(=O)c2ccco2)sc1C(=O)O
- EC50 [5]: 7.4 µM (active)
- EC50 [6]: 4.14 µM (active)
- EC50 [7]: > 150 µM (inconclusive)
- EC50 [8]: 10.3 µM (active)

Compound: COc1ccc(C(=O)/C=C/c2ccccc2)c(OC)c1
- CC50 [1]: 12.4 µM (active)
